Test results reported in patent US20230332232A1, “COMPOSITIONS AND METHODS FOR DIAGNOSING AND TREATING A DYSTONIA” (Duke University, priority 2020, published 2023).

System: DYT1 knockin (Tor1a^delGAG/+) murine embryonic fibroblasts (MEFs)
Assay: Untargeted LC/MS/MS proteomics of EVs from DYT1 MEFs exposed 24 hours to drug, compared with untreated DYT1 (Het) MEFs
Assay type: cell-based, mouse
Experimental: Methods for isolation and purification of exosomes and extracellular vesicles (EV) were extensively reviewed. Experiments were performed to arrive at a robust and reproducible protocol. The protocol used herein is that set forth in Théry et al, 2006, which is incorporated by reference for it teaching of this protocol. This protocol involves depleting serum-derived EVs from cell culture media by overnight ultracentrifugation and exchanging media for 1% FBS EV-depleted media. Media is then collected from cells following a 24-hour conditioning period and EVs are isolated by 18-hour ultracentrifugation at 100,000 g (FIG. 1A).
EVs were isolated from media of cultured murine embryonic fibroblasts (MEFs) prepared in-house according to protocols described by Xu 2005 from DYT1 knockin mice (Tor1a^delGAG/+) (Goodchild R E, et al. (2005) Neuron. 48:923-932) and littermate wild-type (WT) controls. The cultured MEFs from the DYT1 mice were exposed for 24 hours to Ritonavir (RTV) while the MEFs from WT mice were exposed to vehicle, ISRIB, or Salubrinal (SAL). The EVs isolated from these WT cells and DYT1 were characterized by untargeted proteomics and RNA-seq to identify differentially expressed proteins and RNAs as candidate biomarkers. Experimenter and Proteomics core staff were blinded to genotype of cell cultures throughout preparation and analysis phases.
Samples were first normalized to 20 μg and spiked with undigested casein at a total of 40 fmol/μg, 80 fmol/μg, or 160 fmol/μg, then reduced with 10 mM dithiolthreitol for 30 minute at 80° C. and alkylated with 20 mM iodoacetamide for 30 minutes at room temperature. Next, the samples were supplemented with a final concentration of 1.2% phosphoric acid and 741 μL of S-Trap (Protifi) binding buffer (90% MeOH/100 mM […]). Proteins were trapped on the S-Trap, digested using 20 ng/μL sequencing grade trypsin (Promega) for 1 hour at 47° C., and eluted using 50 mM TEAB, followed by 0.2% FA, and lastly using 50% CAN/0.2% FA. All samples were then lyophilized to dryness and resuspended in 40 μL 1% TFA/2% acetonitrile containing 12.5 fmol/μL yeast alcohol dehydrogenase (ADH_YEAST). A QC Pool was created from 3 uL of each sample. All QC Pools were run periodically throughout the acquisition period.
Quantitative LC/MS/MS was performed on 2 μL of each sample, using a nanoAcquity UPLC system (Waters Corp) coupled to a Thermo Orbitrap Fusion Lumos high resolution accurate mass tandem mass spectrometer (Thermo) via a nanoelectrospray ionization source. Briefly, the sample was first trapped on a Symmetry C18 20 mm×180 μm trapping column (5 μL/min at 99.9/0.1 v/v water/acetonitrile), after which the analytical separation was performed using a 1.8 μm Acquity HSS T3 C18 75 μm×250 mm column (Waters Corp.) with a 90 minute linear gradient of 5% to 30% acetonitrile with 0.1% formic acid at a flow rate of 400 nanoliters/minute (nL/min) with a column temperature of 55° C. Data collection on the Fusion Lumos mass spectrometer was performed in a data-dependent acquisition (DDA) mode of acquisition with a r=120,000 (@ m/z 200) full MS scan from m/z 375-1500 with a target AGC value of 2e5 ions. MS/MS scans were acquired at Rapid scan rate (Ion Trap) with an AGC target of 5e3 ions and a max injection time of 100 ms. The total cycle time for MS and MS/MS scans was 2 seconds. A 20 second dynamic exclusion was employed to increase depth of coverage. The total analysis cycle time for each sample injection was approximately 2 hours.

Measured: SAL Direction Opposite ISRIB?

O=C(/C=C/c1ccccc1)NC(NC(=S)Nc1cccc2cccnc12)C(Cl)(Cl)Cl (stereo not shown) [SAL, Salubrinal]
yes: DYT1 (Het) MEF EVs, protein: DNA replication licensing factor MCM6 | DYT1 (Het) MEF EVs, protein: DNA-directed RNA polymerases I and III subunit RPAC1 | DYT1 (Het) MEF EVs, protein: Protein arginine N-methyltransferase 3 | DYT1 (Het) MEF EVs, protein: Scavenger receptor class B member 1 | DYT1 (Het) MEF EVs, protein: Serine threonine-protein phosphatase 2A 55 kDa regulatory subunit B alpha isoform | DYT1 (Het) MEF EVs, protein: Small nuclear ribonucleoprotein-associated protein B | EV protein: 26S proteasome non-ATPase regulatory subunit 8 | EV protein: 60S [?] subunit biogenesis protein [?] homolog | EV protein: 60S ribosomal protein [?] | EV protein: 116 kDa [?] small nuclear ribonucleoprotein component | EV protein: AP-3 complex subunit [?] | EV protein: ATP-dependent RNA helicase [?] | EV protein: Acyl-protein thioesterase 2 | EV protein: Anaphase-promoting complex subunit 2 | EV protein: Anaphase-promoting complex subunit 5 | EV protein: Apolipoprotein M | EV protein: Calnexin | EV protein: Cell [?] cycle protein [?] homolog | EV protein: Coiled-coil domain-containing protein 22 | EV protein: Cullin-2 | EV protein: Cullin-5 | EV protein: Cullin-7 | EV protein: DNA [?] (r264) | EV protein: DNA ligase 1 | EV protein: DNA replication licensing factor [?] | EV protein: DNA-directed RNA polymerase II subunit RPB1 | EV protein: DNA-directed RNA polymerase II subunit RPB2 | EV protein: DNA-directed RNA polymerase II subunit RPB3 | EV protein: DNA-directed RNA polymerases I, II, and III subunit RPABC3 | EV protein: DNA-directed RNA polymerases I, II, and III subunit [?] | EV protein: Double-strand-break repair protein rad21 homolog | EV protein: Elongin-B | EV protein: Exosome complex exonuclease RRP44 | EV protein: Extended synaptotagmin-1 | EV protein: Gamma-tubulin complex component 2 | EV protein: General vesicular transport factor p115 | EV protein: Glycosylated lysosomal membrane protein | EV protein: Glycylpeptide N-tetradecanoyltransferase 1 | EV protein: Golgi reassembly-stacking protein 2 | EV protein: Histone-arginine methyltransterase CARM1 | EV protein: Importin-7 | EV protein: Leucyl-cystinyl aminopeptidase | EV protein: Mediator [?] RNA polymerase II transcription subunit 23 | EV protein: Metastasis-associated protein [?] (r222) | EV protein: Metastasis-associated protein [?] (r261) | EV protein: Microtubule-associated protein [?] | EV protein: Nuclear [?] complex protein [?] | EV protein: Nuclear cap-binding protein subunit 1 | EV protein: Nuclear receptor-binding protein | EV protein: Phosphoribosyl pyrophosphate synthase-associated protein 1 | EV protein: Pigment epithelium-derived factor | EV protein: Protein O-GlcNAcase | EV protein: Protein [?] 14 homolog | EV protein: Protein [?] (r160) | EV protein: Ran-binding protein 10 | EV protein: Ribosome biogenesis protein BOP1 | EV protein: Ribosome production factor 2 homolog | EV protein: Serine threonine-protein phosphatase 6 catalytic subinit | EV protein: Sorting nexin-1 | EV protein: Trascriptional activator protein [?] -alpha | EV protein: WD repeat-containing protein [?] | EV protein: [?] -1 (r154) | EV protein: [?] -1 (r232) | EV protein: [?] -conjucating enxyme [?] | EV protein: [?] kinase | EV protein: [?] myosin- [?] | EV protein: [?] repeat-containing protein 5A | EV protein: [?] small nuclear ribonucleoprotein 40 kDa protein | EV protein: p21-activated protein kinase-interacting protein 1 | EV protein: transportin-3
